Several values for one entry are separate records, joined by “and”; a condition that tells them apart may be missing. Equal values may be shown once.
What was measured:
[1] = design: method as in PMID 23684935; conditions: rabbits; oral dose of 100 mg/kg; cited from earlier work
[2] = design: method as in PMID 18655159; conditions: cited from earlier work
[3] = biological target: T1, P-gp (Homo sapiens, UniProt P08183); assay: Rh123 accumulation in KBv cells; assay type: cell-based; conditions: for Percentage of rhodamine 123 accumulation relative to vehicle treatment: positive = increase; for Effect on P-gp efflux activity when combined with verapamil (in words): higher concentration CLA 10 μmol/L plus verapamil 200 μmol/L
T1 construct: three cells expressing P-gp, Caco-2, KBv and rat brain microvessel endothelial cells (RBMEC); endogenous in cells; host or cells: Caco-2
Method: KB or its vinblastine-resistance derivative KBv cells[19] were maintained on 6-well plates (5 × 10^5 cells/well) in […] medium with 10% FBS, 100 units/mL penicillin and 100 μg/mL streptomycin sulphate at 37°C with 95% air and 5% CO2. After reaching 80%–90% confluence, the two cells were treated with the following agents, respectively: vehicle; (−)CLA (5 or 10 μmol/L); (+)CLA (5 or 10 μmol/L). Additionally, the KBv cells were treated with verapamil (200 μmol/L); or individual enantiomer (5 or 10 μmol/L) plus verapamil (200 μmol/L). Rh123 (5 μmol/L) were finally added to these wells. Subsequently, cell incubation, solubilisation and Rh123 accumulation were performed by using the same method for Caco-2 cells.

[4] = system: P-gp; assay: Rh123 accumulation summarized over Caco-2, KBv and RBMECs; assay type: cell-based; conditions: mean of Caco-2, RBMEC, KBv
Method: (§1) Caco-2 cells were seeded onto 6-well plates at a density of 5 × 10^5 cells/well and maintained in MEM supplemented with 10% (v/v) FBS, 1% (v/v) NEAA, 100 units/mL penicillin and 100 μg/mL streptomycin sulphate in a humidified 37°C incubator with 5% CO2. Upon 80%–90% confluence, the cells were provided new complete medium (2 mL/well) and exposed, to vehicle, (−)CLA (1 or 5 μmol/L), (+)CLA (1 or 5 μmol/L), verapamil (200 μmol/L) or individual enantiomer (1 or 5 μmol/L) plus verapamil (200 μmol/L). Then, Rh123 (5 μmol/L) was added to all the wells. After incubation at 37°C and 5% CO2 for 2 h which was designed by the pharmacokinetic parameters of CLA enantiomers, the cells were washed 3 times with 2 mL of ice-cold PBS (pH 7.4), lysed in 400 μL of lysis buffer [50 mmol/L Tris-HCl (pH 8.0), 150 mmol/L NaCl, 0.1% SDS, 100 μg/mL PMSF, 1 μg/mL aprotinin and 1% Nonidet P-40], and then were placed on ice for 40 min. The plates were wrapped in tinfoil. The fluorescence of Rh123 in each well was detected by Spectra Max Gemini XS plate reader (Molecular Devices Corp., Sunnyvale, CA, USA) with excitation and emission wavelengths of 488 nm and 530 nm, respectively. Meanwhile, 10 μL of cell lysates were collected from each well to measure protein concentration using Lowry’s method. Intracellular Rh123 accumulation was normalized by protein concentration (mg/mL) and then was calculated by a standard curve of Rh123 at three concentrations (2.5–10 μmol/L), in parallel with the lysis experiment.
The experimental programs in this part were approved by the Animal Care and Welfare Committee in our institute. Animals were treated in accordance with national/international guidelines. Primary cultures of brain microvessel endothelial cells were prepared from Sprague—Dawley rats (10–12 days old; Beijing Vital River Company, Beijing, China), as previously described by Qian et al.[21]. The gray matter of animals was taken out and minced into small pieces of approximately 1 mm^3 in ice-cold MEM medium, then dissociated by using 2 mg/mL collagenase containing DNase at a final concentration of 10.5 μg/ml on a shaker for 20 min at 37°C. The cells were pelleted by centrifugation(1000 rpm, 10 min, 4°C) and digested once again according to the above protocol. Then 20% dextran(Mr 40,000) was added to the cells for differential centrifugation at 2000 rpm for 10 min. The cells were re-suspended in complete MEM medium and passed through 74-μm stainless steel mesh. […] The P-gp expression in cultured cells was determined by Western blot analyses using a mouse monoclonal antibody raised against amino acids 1040–1280 of P-gp. […]

[5] = system: P-gp; assay: P-gp expression in KB cells: Western blots; assay type: cell-based, Human; conditions: 5 μmol/L, 24 h, normalized to GAPDH
Method: The sensitive, non-induced KB cells on 6-well plates were grown to 80%–90% confluence and incubated with the following agents for 24 h at 37°C and 5% CO2: vehicle, (−)CLA (1 or 5 μmol/L), (+)CLA (1 or 5 μmol/L), or verapamil (100 μmol/L). The cells were washed 3 times with ice-cold PBS (pH 7.4) and were lysed with 80 μL of lysis buffer described above. Lysates were frozen with liquid nitrogen, thawed in water at 37°C three times and centrifuged at 15,000 ×g for 10 min. The protein concentration of the supernatant was determined by Lowry’s method with bovine serum albumin as the standard. Proteins (48 μg) were separated by SDS-PAGE on a 10% separating gel and 4% stacking gel, and were transferred onto Immobilon-P membranes. The transferred proteins were treated with a blocking buffer (5% non-fat dried milk and 0.02% NP-40 in PBS) and then incubated with P-gp or GAPDH antibodies (at a 1:100 dilution) or HRP-conjugated secondary antibodies (1:1000 dilution) at 37°C for 1 h, respectively. The protein bands were visualized with enhanced chemiluminescence according to the manufacturer’s instructions. The density of the bands was quantified by scanning densitometry (LAS-3000 Imaging System, Fujifilm, Japan; and Kodak Digital Science 1D Analysis Software, Rochester, NY, USA) and was expressed as normalized values to GAPDH.

[6] = design: method as in PMID 12923804; conditions: rats; oral administration; n = 6; cited from earlier work
[7] = biological target: T1, P-gp; assay: Rh123 accumulation in Caco-2 cells; assay type: cell-based; conditions: for Percentage of rhodamine 123 accumulation relative to vehicle treatment: positive = increase; for More Rh123 accumulation than verapamil alone: verapamil 200 μmol/L plus CLA 5 μmol/L
Method: as §1

[8] = high dose, CLA 10 μmol/L, Rh123 5 μmol/L
[9] = low dose, CLA 5 μmol/L, Rh123 5 μmol/L
[10] = high dose, CLA 5 μmol/L, Rh123 5 μmol/L, 2 h
[11] = low dose, CLA 1 μmol/L, Rh123 5 μmol/L, 2 h

T1 sequence (P08183 whole entry): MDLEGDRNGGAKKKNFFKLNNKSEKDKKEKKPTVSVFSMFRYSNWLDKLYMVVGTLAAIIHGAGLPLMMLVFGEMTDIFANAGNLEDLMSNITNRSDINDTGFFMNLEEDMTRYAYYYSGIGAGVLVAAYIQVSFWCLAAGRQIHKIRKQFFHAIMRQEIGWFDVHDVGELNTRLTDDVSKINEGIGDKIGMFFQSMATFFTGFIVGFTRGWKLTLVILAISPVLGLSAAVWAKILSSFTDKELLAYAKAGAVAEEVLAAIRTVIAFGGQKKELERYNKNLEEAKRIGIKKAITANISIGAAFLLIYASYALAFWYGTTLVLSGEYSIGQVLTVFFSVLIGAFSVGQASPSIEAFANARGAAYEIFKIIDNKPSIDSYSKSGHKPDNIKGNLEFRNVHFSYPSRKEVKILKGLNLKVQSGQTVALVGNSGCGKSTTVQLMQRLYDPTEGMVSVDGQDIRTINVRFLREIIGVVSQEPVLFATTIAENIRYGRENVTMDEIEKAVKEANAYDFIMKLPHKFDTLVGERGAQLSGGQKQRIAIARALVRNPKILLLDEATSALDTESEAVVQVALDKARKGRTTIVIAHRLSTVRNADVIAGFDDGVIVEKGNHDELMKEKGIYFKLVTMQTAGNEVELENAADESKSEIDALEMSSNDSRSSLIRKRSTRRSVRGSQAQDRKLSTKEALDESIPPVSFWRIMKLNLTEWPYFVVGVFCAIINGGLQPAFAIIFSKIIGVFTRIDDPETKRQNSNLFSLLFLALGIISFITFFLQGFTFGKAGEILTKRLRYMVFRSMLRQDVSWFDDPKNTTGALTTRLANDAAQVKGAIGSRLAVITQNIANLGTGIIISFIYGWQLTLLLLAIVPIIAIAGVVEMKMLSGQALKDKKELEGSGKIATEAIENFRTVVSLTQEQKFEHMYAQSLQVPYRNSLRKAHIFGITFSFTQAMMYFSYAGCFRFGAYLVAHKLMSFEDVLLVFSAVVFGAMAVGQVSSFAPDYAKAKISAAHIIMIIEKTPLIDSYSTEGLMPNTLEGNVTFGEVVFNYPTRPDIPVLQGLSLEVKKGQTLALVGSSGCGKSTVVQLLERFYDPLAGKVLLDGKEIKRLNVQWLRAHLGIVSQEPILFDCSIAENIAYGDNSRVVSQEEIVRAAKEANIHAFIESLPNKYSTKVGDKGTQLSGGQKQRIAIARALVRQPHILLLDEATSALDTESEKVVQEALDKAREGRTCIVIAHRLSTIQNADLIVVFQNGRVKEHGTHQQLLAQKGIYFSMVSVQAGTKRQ

Percentage of rhodamine 123 accumulation relative to vehicle treatment [3, 8]	Effect on P-gp efflux activity when combined with verapamil (in words) [3]	Antagonism of the inhibition of verapamil to P-gp relative to verapamil treatment alone ([3]; low concentration CLA 5 μmol/L plus verapamil 200 μmol/L)	Percentage of rhodamine 123 accumulation relative to vehicle treatment [3, 9]	Decrease of Rh123 intracellular accumulation vs. control ([3]; lower concentration, CLA 5 μmol/L, Rh123 5 μmol/L)	Decrease of Rh123 intracellular accumulation relative to vehicle control ([7]; CLA 1 μmol/L, Rh123 5 μmol/L, 2 h)	Reduction of Rh123 intracellular concentration relative to verapamil treatment alone ([7]; co-treatment CLA 1 μmol/L with verapamil 200 μmol/L)	Percentage of rhodamine 123 accumulation relative to vehicle treatment [7, 10]	Percentage of rhodamine 123 accumulation relative to vehicle treatment [7, 11]	More Rh123 accumulation than verapamil alone [7]	Structure (SMILES)	AUC0–8 h in the portal vein [1]	AUC0–∞ in target tissues (hippocampus, cortex and cerebellum), comparison of enantiomers [2]	Percentage of rhodamine 123 accumulation relative to vehicle treatment, Mean±SD, n = 3 ([4]; high dose)	Percentage of rhodamine 123 accumulation relative to vehicle treatment, Mean±SD, n = 3 ([4]; low dose)	P-gp expression upregulated relative to vehicle control [5]	AUC0–12 h [6]	Amount that entered into rat brain, comparison of enantiomers ([2]; 15 min after oral administration, P < 0.001)	P-gp expression downregulated relative to vehicle control [5]
24.5% and 24.49%	synergistic effect	35.5%	-25.92%	25.9%	11.7%	29.3%	58.2% and 58.22%	-11.68%	23.1%	CN1C(=O)[C@H](O)[C@@H](c2ccccc2)[C@H]1[C@H](O)c1ccccc1 [(+)CLA, 3R,4S,5S,6R-CLA]	2453 ± 1101 µg·h/mL	greater values for AUC0–∞ than did (−)CLA	41.28±16.86%	-19.21±7.16%	54.5%	2446 ± 540 µg·min/mL	–	–
30.0%	synergistic effect	–	8.2% and 8.16%	–	–	–	63.0% and 62.97%	28.5% and 28.51%	24.2%	CN1C(=O)[C@@H](O)[C@H](c2ccccc2)[C@@H]1[C@@H](O)c1ccccc1 [(−)CLA, 3S, 4R, 5R, 6S-clausenamide]	1001 ± 487 µg·h/mL	–	50.48±17.88%	18.90±10.22%	–	1256 ± 308 µg·min/mL	significantly greater than that of the (+)-isomer	15.9%

Source: paper PMC4546427, “Stereoselective Regulation of P-gp Activity by Clausenamide Enantiomers in Caco-2, KB/KBv and Brain Microvessel Endothelial Cells” (PLoS ONE, 2015)
